In experiment [1] the test system is endothelial cells. Description: CoCl2-induced apoptosis of endothelial cells (Annexin-FITC/PI FACS). It counts as cell-based, human. The following applies: 24 hours CoCl2 treatment, normoxia about 27%. Here is the method:
FIGS. 33a-f are representative FACS analyses depicting a specific inhibition of hypoxia-induced apoptosis of endothelial cells by ADOPep1. Endothelial cells in Petri dishes were incubated for 24 hours with 5% FCS in supplement-free endothelial cell growth medium under normoxia (FIGS. 33a and d), exposed to 24 hours hypoxia (Figures c and f) or incubated under normoxia with 100 micromolar per 100,000 cells CoCl2 (FIGS. 33b and e), in the absence (FIGS. 33a-c) or presence (FIGS. 33d-f) of 10 ng/ml Adopep1 peptide (for 24 hours). Cells were trypsinized and immediately re-suspended in PBS with 5% FCS and 0.1% Na-azide. Samples containing 100,000 cells were tested for apoptosis using the Annexin-FITC (X axis) and propidium iodide (Y axis) kit (Bender Medsystems, Vienna, Austria), according to manufacturer's instructions. Results were analyzed by FACScan (Beckton Dickinson).
FIG. 34 is a histogram depicting the FACS results of the experiments described in FIGS. 33a-f. Data represents average±SD of 2 experiments.

For experiment [2], the system named is endothelial cells (HUVEC). Description: Proliferation of endothelial cells under hypoxia ([H3]Thymidine incorporation). It counts as cell-based, human. The following applies: 24 hours starvation, 10 ng/ml. Here is the method: FIG. 5 is a graph depicting cell proliferation as a function of ADOPeps' concentration. Proliferation of endothelial cells (EC) under hypoxia conditions was measured by [H^3]Thymidine incorporation. Endothelial cells (12,000/well) in minimal growth medium were incubated for 24 hours in the presence of 1, 10 and 100 ng/ml of ADOPep1 (SEQ ID NO:2; red diamonds), 2 (SEQ ID NO:3; blue squares) and 3 (SEQ ID NO:4; green triangles) peptides.
HUVEC from passage 3 were used for proliferation experiments. Endothelial cells (15,000 cells/well) were seeded on 24-wells in the presence of endothelial cell growth medium (Promocell, Heidelberg, Germany) with supplements and incubated for 24 hours. After then, cells were exposed to 24 hours starvation in a medium free of supplements. ADOPeps were added at concentrations of 1, 10 and 100 ng/ml for 24 hours under hypoxic conditions. 2 μCi/well of Thymidine (SIGMA, Rehovot Israel) were added or over night incubation followed by 3 washes with PBS before harvesting at 37° C. with 300 μl/well of 0.5 M NaOH. Cell lysates were transferred to scintillation vials with 2 ml scintillation liquid Ultima Gold (Packard Bioscience, Meriden, USA) and counted in a β counter. Results were obtained as counts per minute (cpm).
(In general: Uptake of a labelled nucleoside into DNA is a usual measure of proliferation.)

The subject of another experiment is ERK½. Description: ERK½ phosphorylation in endothelial cells under hypoxia (Western blot, densitometry). The format is cell-based, human. Particulars: for ERK½ phosphorylation (in words): endothelial cells under hypoxia, 10 ng/ml. Here is the method: FIGS. 30a-b are Western blot analyses depicting induction of phosphorylation of ERK by ADoPep1 and Motif A. Endothelial cells under starvation conditions and 5 hours hypoxia were incubated for 5 (lanes 2 and 6), 20 (lanes 3 and 7), 30 (lanes 4 and 8) and 60 (lanes 5 and 9) minutes with 10 ng/ml ADoPep1 (Lanes 2-5) or Motif A (lanes 6-9) peptides or remained under hypoxia without a further incubation with a peptide (lane 1). After incubation, lysates were prepared, subject to SDS-PAGE and blotting on a nitrocellulose membrane. Western Blot analysis was performed using anti-Phospho ERK½ antibody. […] FIG. 30a—Experiment 1; FIG. 30b—Experiment 2. The percent adjusted volume as determined by a densitometric analysis software to compare net band densities was as follows: FIG. 30a, lane 1-4.5, lane 2-9.3, lane 3-13.7, lane 4-13.3, lane 5-11.2, lane 6-10.7, lane 7-12.4, lane 8-12.3 and lane 9-12.4; FIG. 30b, lane 1-4.21, lane 2-12.4, lane 3-12.5, lane 4-14.8, lane 5-10.9, lane 6-14.9, lane 7-9.8, lane 8-12.7 and lane 9-7.8.
FIG. 31 is a Western blot analysis depicting the level of phosphorylated ERK (pERK) in endothelial cells activated for 20 minutes with ADOPep1 and motif A and inhibited by pERK-inhibitor peptide. Endothelial cells (from cord 1) under starvation conditions and 5 hours hypoxia were incubated with 10 ng/ml ADOPep1 (lanes 3 and 4) or motif A (lanes 1 and 2) peptides in the presence (lanes 2 and 4) or absence (lanes 1 and 3) of p-ERK-inhibitor peptide (Santa Cruz). For control, the endothelial cells under starvation conditions and 5 hours hypoxia (lane 5) were also incubated with the p-ERK-inhibitor peptide (lane 6). […] The percent adjusted volume as determined by a densitometric analysis software to compare net band densities was as follows: lane 1-19, lane 2-14, lane 3-14, lane 4-8.8, lane 5-11, lane 6-2.1.
FIGS. 32a-b are Western blot analyses depicting the effect of ADOPeps on the level of phosphorylated ERK. Endothelial cells (EC) from cord 1 (FIG. 32a) or cord 2 (FIG. 32b) under hypoxia (5 hours) were incubated for 20 or 30 minutes with 10 ng/ml of AdoPep1, AdoPep2 and AdoPep3 or remained untreated (i.e., under hypoxia without any peptide). Western Blot analyses of samples cell lysates were performed with anti Phospho ERK antibody on nitrocellulose membranes. […] The percent adjusted volume as determined by a densitometric analysis software to compare net band densities was as follows: FIG. 32a, lane 1-11, lane 2-13, lane 3-11, lane 4-5, lane 5-11, lane 6-13, lane 7-17, lane 8-16.7; FIG. 32b, lane 1-17, lane 2-22, lane 3-19, lane 4-7, lane 5-8, lane 6-13, lane 7-14, lane 8-1.
On the technique in general: Immunoblotting shows a protein as a band on a membrane.

Experiment [3] relates to GRP78 receptor on endothelial cells. Description: Competitive binding of ADOPeps to GRP78 (anti-GRP78 antibody ELISA on endothelial cells). The following applies: summary of 4 experiments. The arrangement: species or system human. Here is the method:
FIG. 19 is a graph depicting inhibition of binding (in percentages) of anti-GRP78 antibody to endothelial cells by increasing concentrations of ADOPep1, 2, and 3 peptides. Endothelial cells were incubated for 2 hours with increasing concentrations of ADOPeps, following which the cells were incubated for another 1 hour with the 2 μg/ml of anti-GRP78 antibody and the amount of bound antibody on EC was detected using an ELISA reader.
Endothelial cells (20,000 per well) were seeded in 96 well plates for 24 hours in the presence of the complete medium. Plates were washed with PBS over night and rehydrated with PBS, 0.1% Na Azide and 5% FCS. ADOPep1, ADOPep2 and ADOPep3 were added to washed plates for 2 hours at room temperature at concentrations of 0.01, 0.1 and 1 microgram per ml. Anti-GRP78 antibody (goat polyclona IgG, Santa Cruz Biotechnology, Calif., USA) was added to the plates for 1 hour at room temperature at a concentration of 2 micrograms/ml per well. After washing, bound anti-GRP78 antibody was detected by incubation with anti-goat IgG Peroxidase conjugated (Jackson Immuneresearch Laboratories, PA, USA). After 5 washes with PBS-0.1% Tween 20, 100 μl/well of TMB+ Substrate-Chromogen (DAKOCytomation, CA, USA) was added for a maximum of 30 minutes. Reaction was stopped with 1N HCl. Color developed was determined by an ELISA reader at 450 nm.
For orientation: An ELISA detects its analyte on a solid surface through an enzyme-linked reagent.

For experiment [4], the system named is endothelial cells. Description: Tube formation of endothelial cells on Cultrex Basement Membrane Extract. It counts as cell-based, human. Particulars: 10 ng/ml, 18 hours, starvation and normoxic conditions. The protocol: FIG. 27 is a graph depicting induction of tube formation using AdoPep1 and Motif A (SEQ ID NO:7) but not the scrambled sROY peptide. Endothelial cells were incubated in media without supplements for 24 hours, and 50,000 cells were then transferred in 500 μl medium to 24-well plates precoated with 250 μl Cultrex Basement Membrane Extract (with reduced growth factors) (R&D Systems, Minneapolis, Minn., USA). AdoPep1, Motif A and scrambled sROY peptides were added at an optimal concentration of 10 ng/ml (based on preliminary findings), and the slides were examined by light microscopy after 18 hours incubation. The results represent average±SD of three experiments using 3 different cords. The length of the network of connected cells (tube formation) was measured in micrometers in 5 different areas of each well using Image-Pro Plus Image software (Media Cybernetics, Silver Spring, Md., USA).

Setting [5] is: FIG. 32a cord 1, 10 ng/ml, 20 minutes, untreated 11, 13.
[6] abbreviates: FIG. 32a cord 1, 10 ng/ml, 30 minutes, untreated 11, 13.
Setting [7] is: FIG. 32b cord 2, 10 ng/ml, 20 minutes, untreated 17.
The mark [8] stands for this setting: FIG. 32b cord 2, 10 ng/ml, 30 minutes, untreated 8.

“Also recorded” adds a separate entry of the source.

In the experiment on endothelial cells [1], `[Cl][Co][Cl]` [CoCl2, Cobalt-Chloride, reference compound] registered a level of apoptosis of about 67%.
Turning to “ENFLHWRRAHLL [ADOPep2, ADAM15 derived peptide]”, the “proliferation of endothelial cells” value in experiment [2] is on record as “capable of inducing proliferation of EC”. For the same molecule, the “percent adjusted volume of phospho ERK band” value was determined as 11% in the experiment with ERK½ (setting [5]), 13% in the experiment with ERK½ (setting [6]), 19% in the experiment with ERK½ (setting [7]) and 14% with ERK½ (setting [8]). Moreover, the “ERK½ phosphorylation (in words)” value with ERK½ is recorded as “induced ERK½ phosphorylation; also recorded: increase in ERK½ phosphorylation”. Besides, the “inhibition of binding of anti-GRP78 antibody to EC (in words)” value (“inhibition” below) in experiment [3] is reported as “some degree of inhibition”.
As for “RYHLIPRGWDHS [sRoY, scrambled control peptide, reference compound]”, in experiment [3], the “inhibition” value is listed as “not effective; also recorded: no specific inhibition effect”. The “tube formation (length of the network of connected cells)” value in the experiment with endothelial cells [4] (listed as scrambled sROY) is “did not induced tube formation”; with endothelial cells [4] (listed as scrambled sROY peptide), “no effect on tube formation”.
Take “AVTLENFLHWRR [ADOPep3, ADAM15 derived peptide]”: the “percent adjusted volume of phospho ERK band” value was 11% in the experiment on ERK½ (setting [5]), 5% in the experiment with ERK½ (setting [6]), 7% in the experiment with ERK½ (setting [7]) and 1% with ERK½ (setting [8]). In the experiment with ERK½, the “ERK½ phosphorylation (in words)” value is recorded as “had not effect on ERK½ phosphorylation”. Besides, the “inhibition” value in experiment [3] was “some degree of inhibition”.

Source of the values: US8741843B2, “Compositions and methods for inducing angiogenesis” (priority 2006, dated 2014).
